Data taken from article PMC8373216, “Development and Preclinical Evaluation of New Inhaled Lipoglycopeptides for the Treatment of Persistent Pulmonary Methicillin-Resistant Staphylococcus aureus Infections” (Antimicrobial Agents and Chemotherapy, 2021).
≈ marks a conversion by molar mass, not a printed value. Where two headings read alike, the source gives them in different places.

Legend:
S. aureus = assay: Expanded panel broth microdilution MIC/MBC; settings: Staphylococcus aureus
[1] = test system: Staphylococcus lugdunensis; assay: Expanded panel broth microdilution MIC; assay type: cell-based
Staphylococcus hominis = assay: Expanded panel broth microdilution MIC; assay type: cell-based
H. parainfluenzae = assay: Expanded panel broth microdilution MIC; assay type: cell-based; settings: Haemophilus parainfluenzae; H. parainfluenzae MMX 2529; read-out: MIC
Streptococcus agalactiae = assay: Expanded panel broth microdilution MIC/MBC; assay type: cell-based; settings: for MIC: Streptococcus agalactiae
S. marcescens = assay: Expanded panel broth microdilution MIC; assay type: cell-based; settings: Serratia marcescens, ATCC43862; S. marcescens ATCC 43862; read-out: MIC
[2] = test system: MRSA ATCC BAA 1556 (USA300); assay: In-house broth microdilution MIC screening; assay type: cell-based, Staphylococcus aureus; settings: Staphylococcus aureus; broth microdilution; read-out: MIC Value, MRSA ATCC BAA 1556
Haemophilus influenzae = assay: Expanded panel broth microdilution MIC; assay type: cell-based; settings: for MIC: read-out: MIC
[3] = test system: Staphylococcus epidermidis; assay: Expanded panel broth microdilution MIC/MBC; assay type: cell-based; settings: for MIC: Staphylococcus epidermidis
Acinetobacter baumannii = assay: Expanded panel broth microdilution MIC; assay type: cell-based; settings: Acinetobacter baumannii; for MIC: read-out: MIC
[4] = test system: MRSA ATCC BAA 1556 (USA300) biofilm; assay: MRSA biofilm killing, MBEC assay system, TSB with 1% human plasma; settings: MBEC
E. cloacae = assay: Expanded panel broth microdilution MIC; assay type: cell-based; settings: Enterobacter cloacae, read-out: MIC
E. coli = assay: Expanded panel broth microdilution MIC; assay type: cell-based; settings: Escherichia coli, read-out: MIC
Pseudomonas aeruginosa = assay: Expanded panel broth microdilution MIC; assay type: cell-based
P. vulgaris = assay: Expanded panel broth microdilution MIC; assay type: cell-based; settings: Proteus vulgaris; P. vulgaris MMX 9373; read-out: MIC
Streptococcus oralis = assay: Expanded panel broth microdilution MIC; assay type: cell-based
Cutibacterium acnes = assay: Expanded panel broth microdilution MIC; assay type: cell-based
Clostridium. perfringens = assay: microbe, parasite or virus in culture; assay type: cell-based
MSSA ATCC 29213 = assay: In-house broth microdilution MIC screening; assay type: cell-based; settings: Staphylococcus aureus; broth microdilution; read-out: MIC Value, MSSA ATCC 29213

## CCCCCCCCCCNCCN[C@@]1(C)C[C@H](O[C@H]2[C@H](Oc3c4cc5cc3Oc3ccc(cc3Cl)[C@@H](O)[C@@H](NC(=O)[C@@H](CC(C)C)NC)C(=O)N[C@@H](CC(N)=O)C(=O)N[C@H]5C(=O)N[C@H]3C(=O)N[C@H](C(=O)N[C@H](C(=O)O)c5cc(O)cc(O)c5-c5cc3ccc5O)[C@H](O)c3ccc(c(Cl)c3)O4)O[C@H](CO)[C@@H](O)[C@@H]2O)O[C@@H](C)[C@H]1O [RV40, N-decylaminoethylvancomycin]
S. aureus; NRS13 / VISA, S. aureus NRS13, VISA
  MIC: 0.03 µg/mL (≈ 18.4 nM)
S. aureus; NRS22 / VISA, S. aureus NRS22, VISA
  MIC: 0.06 µg/mL (≈ 36.8 nM)
S. aureus; NRS23, S. aureus NRS23, hVISA
  MIC: 0.03 µg/mL (≈ 18.4 nM)
S. aureus; NRS52 / VISA, S. aureus NRS52, VISA
  MIC: 0.03 µg/mL (≈ 18.4 nM)
S. aureus; VISA, read-out: MIC (median), S. aureus VISA, 5 isolates
  MIC: 0.06 µg/mL (≈ 36.8 nM)
S. aureus; read-out: MIC (median), S. aureus hVISA, 2 isolates
  MIC: 0.023 µg/mL (≈ 14.1 nM)
[1]; S. lugdunensis, 1 isolate
  MIC: 0.004 µg/mL (≈ 2.45 nM)
[1]; Staphylococcus lugdunensis, S. lugdunensis MMX 8724, read-out: MIC
  MIC: 0.004 µg/mL (≈ 2.45 nM)
Staphylococcus hominis; ATCC27844, S. hominis ATCC 27844, read-out: MIC
  MIC: 0.015 µg/mL (≈ 9.19 nM)
Staphylococcus hominis; S. hominis, 1 isolate, read-out: MIC
  MIC: 0.015 µg/mL (≈ 9.19 nM)
H. parainfluenzae
  MIC: 16 µg/mL (≈ 9800 nM)
Streptococcus agalactiae; S. agalactiae, MBC on one organism
  MIC:MBC: 1
Streptococcus agalactiae; ATCC13813, S. agalactiae ATCC 13813, read-out: MIC
  MIC: 0.008 µg/mL (≈ 4.9 nM)
Streptococcus agalactiae; S. agalactiae MMX 4088, read-out: MIC
  MIC: 0.008 µg/mL (≈ 4.9 nM)
Streptococcus agalactiae; S. agalactiae MMX 4115, ermR, read-out: MIC
  MIC: 0.008 µg/mL (≈ 4.9 nM)
Streptococcus agalactiae; S. agalactiae ermR, 1 isolate, read-out: MIC
  MIC: 0.008 µg/mL (≈ 4.9 nM)
Streptococcus agalactiae; S. agalactiae, 2 isolates, read-out: MIC (median)
  MIC: 0.008 µg/mL (≈ 4.9 nM)
S. marcescens
  MIC: > 64 µg/mL
[2]
  MIC: 0.016 µg/mL (≈ 9.8 nM)
Haemophilus influenzae
  MIC range: 16 to 32 µg/mL
Haemophilus influenzae; ATCC49247, H. influenzae ATCC 49247, BL-
  MIC: 64 µg/mL (≈ 39200 nM)
Haemophilus influenzae; H. influenzae MMX 7988, BL+
  MIC: 32 µg/mL (≈ 19600 nM)
[3]; S. epidermidis MRSE, MBC on one organism
  MIC:MBC: 1
[3]; ATCC49134, S. epidermidis ATCC 49134, MSSE, read-out: MIC
  MIC: 0.015 µg/mL (≈ 9.19 nM)
[3]; MRSE, S. epidermidis MMX 762, MRSE, read-out: MIC
  MIC: 0.008 µg/mL (≈ 4.9 nM)
[3]; MRSE, S. epidermidis MMX 5145, MRSE, read-out: MIC
  MIC: 0.004 µg/mL (≈ 2.45 nM)
[3]; MRSE, S. epidermidis MRSE, 2 isolates, read-out: MIC (median)
  MIC: 0.008 µg/mL (≈ 4.9 nM)
[3]; S. epidermidis MSSE, 1 isolate, read-out: MIC
  MIC: 0.015 µg/mL (≈ 9.19 nM)
Acinetobacter baumannii
  MIC range: 32 to 64 µg/mL
Acinetobacter baumannii; A. baumannii MMX 3372, MDR
  MIC: 64 µg/mL (≈ 39200 nM)
Acinetobacter baumannii; A. baumannii MMX 6974, colistinR
  MIC: 32 µg/mL (≈ 19600 nM)
Acinetobacter baumannii; NCTC13304, A. baumannii NCTC 13304, OXA-27
  MIC: > 64 µg/mL
[4]; 128 μg/ml
  Reduction in MRSA biofilm titer compared to untreated biofilm: 4 log10 CFU/peg
[4]; two-way ANOVA, Bonferroni
  Concentrations with statistically significant reduction versus control biofilm: ≥ 4 µg/mL
E. cloacae; ATCC49141, E. cloacae ATCC 49141
  MIC: > 64 µg/mL
E. cloacae; ATCCBAA1143, E. cloacae ATCC BAA-1143, AmpC
  MIC: > 64 µg/mL
E. coli; ATCC25922, E. coli ATCC 25922, non-ESBL
  MIC: > 64 µg/mL
E. coli; E. coli MMX 5684, ESBL (TEM-10)
  MIC: > 64 µg/mL
Pseudomonas aeruginosa
  MIC: > 64 µg/mL
Pseudomonas aeruginosa; ATCC27853, P. aeruginosa ATCC 27853, read-out: MIC
  MIC: > 64 µg/mL
Pseudomonas aeruginosa; P. aeruginosa MMX 2562, MDR, read-out: MIC
  MIC: > 64 µg/mL
P. vulgaris
  MIC: > 64 µg/mL
Streptococcus oralis; S. oralis MGS, 1 isolate
  MIC: 0.015 µg/mL (≈ 9.19 nM)
Streptococcus oralis; Streptococcus oralis, S. oralis (MGS) MMX 5821, read-out: MIC
  MIC: 0.015 µg/mL (≈ 9.19 nM)
Cutibacterium acnes; ATCC6919, P. acnes ATCC 6919, read-out: MIC
  MIC: 0.008 µg/mL (≈ 4.9 nM)
Cutibacterium acnes; ATCC11827, P. acnes ATCC 11827, read-out: MIC
  MIC: 0.008 µg/mL (≈ 4.9 nM)
Cutibacterium acnes; C. acnes, 2 isolates, read-out: MIC (median)
  MIC: 0.008 µg/mL (≈ 4.9 nM)
Clostridium. perfringens
  MIC: 0.015 µg/mL (≈ 9.19 nM)
Clostridium. perfringens; ATCC13124
  MIC: 0.015 µg/mL (≈ 9.19 nM)
MSSA ATCC 29213
  MIC: 0.016 µg/mL (≈ 9.8 nM)
